According to US12077503B2, “Substituted cyclic amides and their use as herbicides” (FMC CORPORATION, priority 2015, dated 2024):

Columns and labels:
Type in all cases: in vivo
[1] = tested on: corn (Zea mays); assay: Test G Post-Emergence Protocol; settings: Zea mays, post-emergence, 312 h; for plant injury at 15.625 g/ha: 15.625 g ai/ha, evaluated after 13 days (100=total damage to plant; 0=no damage to plant), read-out: Corn damage rating; for plant injury at 62.5 g/ha: 62.5 g ai/ha, read-out: Corn damage rating (100=total damage to plant; 0=no damage to plant); for plant injury at 62.5 g/ha / plant injury at 250 g/ha: evaluated after 13 days; for plant injury at 250 g/ha: 250 g ai/ha, read-out: damage to plant, Corn (100=total damage to plant; 0=no damage to plant)
Procedure, shortened: (§1)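 Values are percent visual injury at 13 days after treatment (0 none, 100 total). Treatment was a post-emergence spray at 15.625, 62.5 or 250 g/ha on 8-day-old pot plants kept at 24/16 °C.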

[2] = tested on: ivy-leaved morning glory (Ipomoea hederacea); assay: Test G Post-Emergence Protocol; settings: Ipomoea, post-emergence, 312 h; for pest or weed control at 15.625 g/ha: 15.625 g ai/ha, evaluated after 13 days (100=total damage to plant; 0=no damage to plant), read-out: Morningglory, Ivy-leaved damage rating; for pest or weed control at 62.5 g/ha: 62.5 g ai/ha, read-out: Morningglory, Ivy-leaved damage rating (100=total damage to plant; 0=no damage to plant); for pest or weed control at 62.5 g/ha / pest or weed control at 250 g/ha: evaluated after 13 days; for pest or weed control at 250 g/ha: 250 g ai/ha, read-out: damage to plant, Morningglory, Ivy-leaved (100=total damage to plant; 0=no damage to plant)
Procedure, shortened: as §1

[3] = tested on: barnyardgrass (Echinochloa crus-galli); assay: Test G Post-Emergence Protocol; settings: Echinochloa crus-galli, post-emergence, 312 h; for pest or weed control at 15.625 g/ha: 15.625 g ai/ha, evaluated after 13 days (100=total damage to plant; 0=no damage to plant), read-out: Barnyardgrass damage rating; for pest or weed control at 62.5 g/ha: 62.5 g ai/ha, read-out: Barnyardgrass damage rating (100=total damage to plant; 0=no damage to plant); for pest or weed control at 62.5 g/ha / pest or weed control at 250 g/ha: evaluated after 13 days; for pest or weed control at 250 g/ha: 250 g ai/ha, read-out: damage to plant, Barnyardgrass (100=total damage to plant; 0=no damage to plant)
Procedure, shortened: as §1

[4] = tested on: redroot pigweed (Amaranthus retroflexus); assay: Test G Post-Emergence Protocol; settings: Amaranthus retroflexus, post-emergence, 312 h; for pest or weed control at 15.625 g/ha: 15.625 g ai/ha, evaluated after 13 days (100=total damage to plant; 0=no damage to plant), read-out: Pigweed, Redroot damage rating; for pest or weed control at 62.5 g/ha: 62.5 g ai/ha, read-out: Pigweed, Redroot damage rating (100=total damage to plant; 0=no damage to plant); for pest or weed control at 62.5 g/ha / pest or weed control at 250 g/ha: evaluated after 13 days; for pest or weed control at 250 g/ha: 250 g ai/ha, read-out: damage to plant, Pigweed, Redroot (100=total damage to plant; 0=no damage to plant)
Procedure, shortened: as §1

[5] = tested on: giant foxtail (Setaria faberi); assay: Test G Post-Emergence Protocol; settings: Setaria faberi, post-emergence, 312 h; for pest or weed control at 15.625 g/ha: 15.625 g ai/ha, evaluated after 13 days (100=total damage to plant; 0=no damage to plant), read-out: Foxtail, Giant damage rating; for pest or weed control at 62.5 g/ha: 62.5 g ai/ha, read-out: Foxtail, Giant damage rating (100=total damage to plant; 0=no damage to plant); for pest or weed control at 62.5 g/ha / pest or weed control at 250 g/ha: evaluated after 13 days; for pest or weed control at 250 g/ha: 250 g ai/ha, read-out: damage to plant, Foxtail, Giant (100=total damage to plant; 0=no damage to plant)
Procedure, shortened: as §1

[6] = tested on: velvetleaf (Abutilon theophrasti); assay: Test G Post-Emergence Protocol; settings: Abutilon theophrasti, post-emergence, 312 h; for pest or weed control at 15.625 g/ha: 15.625 g ai/ha, evaluated after 13 days (100=total damage to plant; 0=no damage to plant), read-out: Velvetleaf damage rating; for pest or weed control at 62.5 g/ha: 62.5 g ai/ha, read-out: Velvetleaf damage rating (100=total damage to plant; 0=no damage to plant); for pest or weed control at 62.5 g/ha / pest or weed control at 250 g/ha: evaluated after 13 days; for pest or weed control at 250 g/ha: 250 g ai/ha, read-out: damage to plant, Velvetleaf (100=total damage to plant; 0=no damage to plant)
Procedure, shortened: as §1

[7] = tested on: corn (Zea mays); assay: Test G Pre-Emergence Protocol; settings: Zea mays, pre-emergence, 312 h, evaluated after 13 days; for plant injury at 15.625 g/ha: 15.625 g ai/ha; for plant injury at 15.625 g/ha / plant injury at 250 g/ha: read-out: Corn damage rating (100=total damage to plant; 0=no damage to plant); for plant injury at 62.5 g/ha: 62.5 g ai/ha, 100=total damage to plant, 0=no damage to plant, read-out: plant damage rating, Corn; for plant injury at 250 g/ha: 250 g ai/ha
Procedure, shortened: (§2)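 Herbicidal effect was rated 13 days post-application on a scale where 100 equals total damage. Spraying took place the day after sowing, using 15.625, 62.5 or 250 g/ha of compound in a 50:50 acetone/water solution with 0.5% Tween 20.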

[8] = tested on: ivy-leaved morning glory (Ipomoea hederacea); assay: Test G Pre-Emergence Protocol; settings: Ipomoea, pre-emergence, 312 h, evaluated after 13 days; for pest or weed control at 15.625 g/ha: 15.625 g ai/ha, read-out: Morning-glory, Ivy-leaved damage rating (100=total damage to plant; 0=no damage to plant); for pest or weed control at 62.5 g/ha: 62.5 g ai/ha, 100=total damage to plant, 0=no damage to plant, read-out: plant damage rating, Morningglory, Ivy-leaved; for pest or weed control at 250 g/ha: 250 g ai/ha, read-out: Morningglory, Ivy-leaved damage rating (100=total damage to plant; 0=no damage to plant)
Procedure, shortened: as §2

[9] = tested on: barnyardgrass (Echinochloa crus-galli); assay: Test G Pre-Emergence Protocol; settings: Echinochloa crus-galli, pre-emergence, 312 h, evaluated after 13 days; for pest or weed control at 15.625 g/ha: 15.625 g ai/ha, read-out: Barnyard grass damage rating (100=total damage to plant; 0=no damage to plant); for pest or weed control at 62.5 g/ha: 62.5 g ai/ha, 100=total damage to plant, 0=no damage to plant, read-out: plant damage rating, Barnyardgrass; for pest or weed control at 250 g/ha: 250 g ai/ha, read-out: Barnyardgrass damage rating (100=total damage to plant; 0=no damage to plant)
Procedure, shortened: as §2

[10] = tested on: redroot pigweed (Amaranthus retroflexus); assay: Test G Pre-Emergence Protocol; settings: Amaranthus retroflexus, pre-emergence, 312 h, evaluated after 13 days; for pest or weed control at 15.625 g/ha: 15.625 g ai/ha; for pest or weed control at 15.625 g/ha / pest or weed control at 250 g/ha: read-out: Pigweed, Redroot damage rating (100=total damage to plant; 0=no damage to plant); for pest or weed control at 62.5 g/ha: 62.5 g ai/ha, 100=total damage to plant, 0=no damage to plant, read-out: plant damage rating, Pigweed, Redroot; for pest or weed control at 250 g/ha: 250 g ai/ha
Procedure, shortened: as §2

[11] = tested on: giant foxtail (Setaria faberi); assay: Test G Pre-Emergence Protocol; settings: Setaria faberi, pre-emergence, 312 h, evaluated after 13 days; for pest or weed control at 15.625 g/ha: 15.625 g ai/ha; for pest or weed control at 15.625 g/ha / pest or weed control at 250 g/ha: read-out: Foxtail, Giant damage rating (100=total damage to plant; 0=no damage to plant); for pest or weed control at 62.5 g/ha: 62.5 g ai/ha, 100=total damage to plant, 0=no damage to plant, read-out: plant damage rating, Foxtail, Giant; for pest or weed control at 250 g/ha: 250 g ai/ha
Procedure, shortened: as §2

[12] = tested on: velvetleaf (Abutilon theophrasti); assay: Test G Pre-Emergence Protocol; settings: Abutilon theophrasti, pre-emergence, 312 h, evaluated after 13 days; for pest or weed control at 15.625 g/ha: 15.625 g ai/ha; for pest or weed control at 15.625 g/ha / pest or weed control at 250 g/ha: read-out: Velvetleaf damage rating (100=total damage to plant; 0=no damage to plant); for pest or weed control at 62.5 g/ha: 62.5 g ai/ha, 100=total damage to plant, 0=no damage to plant, read-out: plant damage rating, Velvetleaf; for pest or weed control at 250 g/ha: 250 g ai/ha
Procedure, shortened: as §2

SMILES	plant injury at 15.625 g/ha [1] [%]	plant injury at 62.5 g/ha [1] [%]	plant injury at 250 g/ha [1] [%]	pest or weed control at 15.625 g/ha [2] [%]	pest or weed control at 62.5 g/ha [2] [%]	pest or weed control at 250 g/ha [2] [%]	pest or weed control at 15.625 g/ha [3] [%]	pest or weed control at 62.5 g/ha [3] [%]	pest or weed control at 250 g/ha [3] [%]	pest or weed control at 15.625 g/ha [4] [%]	pest or weed control at 62.5 g/ha [4] [%]	pest or weed control at 250 g/ha [4] [%]	pest or weed control at 15.625 g/ha [5] [%]	pest or weed control at 62.5 g/ha [5] [%]	pest or weed control at 250 g/ha [5] [%]	pest or weed control at 15.625 g/ha [6] [%]	pest or weed control at 62.5 g/ha [6] [%]	pest or weed control at 250 g/ha [6] [%]	plant injury at 15.625 g/ha [7] [%]	plant injury at 62.5 g/ha [7] [%]	further results
CN1C[C@@H](c2ccc(C(F)(F)F)cc2)[C@H](C(=O)Nc2ccnc(Cl)n2)C1=O (racemic) [Compound 1544]	10	10	10	0	0	0	0	0	0	0	0	0	0	0	0	0	0	0	0	0	plant injury at 250 g/ha [7]: 0%; pest or weed control at 15.625 g/ha [8]: 0%; pest or weed control at 62.5 g/ha [8]: 0%; pest or weed control at 250 g/ha [8]: 0%; pest or weed control at 15.625 g/ha [9]: 0%; pest or weed control at 62.5 g/ha [9]: 0%; pest or weed control at 250 g/ha [9]: 0%; pest or weed control at 15.625 g/ha [10]: 0%; pest or weed control at 62.5 g/ha [10]: 0%; pest or weed control at 250 g/ha [10]: 0%; pest or weed control at 15.625 g/ha [11]: 0%; pest or weed control at 62.5 g/ha [11]: 0%; pest or weed control at 250 g/ha [11]: 0%; pest or weed control at 15.625 g/ha [12]: 0%; pest or weed control at 62.5 g/ha [12]: 0%; pest or weed control at 250 g/ha [12]: 0%
CN1C[C@@H](c2ccc(C(F)(F)F)cc2)[C@H](C(=O)Nc2nnc(C(F)(F)F)s2)C1=O (racemic) [Compound 1548]	0	0	0	0	0	0	0	0	0	0	0	0	0	0	0	0	0	0	0	0	plant injury at 250 g/ha [7]: 0%; pest or weed control at 15.625 g/ha [8]: 0%; pest or weed control at 62.5 g/ha [8]: 0%; pest or weed control at 250 g/ha [8]: 0%; pest or weed control at 15.625 g/ha [9]: 0%; pest or weed control at 62.5 g/ha [9]: 0%; pest or weed control at 250 g/ha [9]: 0%; pest or weed control at 15.625 g/ha [10]: 0%; pest or weed control at 62.5 g/ha [10]: 0%; pest or weed control at 250 g/ha [10]: 0%; pest or weed control at 15.625 g/ha [11]: 0%; pest or weed control at 62.5 g/ha [11]: 0%; pest or weed control at 250 g/ha [11]: 0%; pest or weed control at 15.625 g/ha [12]: 0%; pest or weed control at 62.5 g/ha [12]: 0%; pest or weed control at 250 g/ha [12]: 0%
